The record followed here is patent US4642314A, “Antiulcer compounds” (Nisshin Flour Milling Co., Ltd., priority 1984, dated 1987).

In data set [1] the test system is acetic acid-induced ulcer. The experiment in a line: Acetic acid-induced ulcer (Curative test). Type of data set: in vivo, rat (male SD rats). As to conditions: Table 2; rat, 0.05 ml of 15% acetic acid underneath the serosa; lesion area on 14th day. How it is done:
(§1) In the case of reserpine-induced ulcer, the assay was performed according to the description in "Arch. Int. Pharmacodym. Ther. 147,113 (1964)", and in the case of acetic acid-induced ulcer, the assay was performed according to the method described in "Jap. J. Pharmac. 19,418 (1969)", by inducing experimental ulcer in rat and evaluating the effect thereon of the compounds tested.
Groups of rats, each consisting of 6 male SD rats weighing 150-200 g were used. The stomach of ether-anesthesized rat was exposed and while taking acre not to injure blood vessels, 0.05 ml of 15% aqueous acetic acid solution was injected underneath the serosa. On the 14th day, the rats were killed with chloroform, the stomach taken out and the area of the infected lesion measured.
The curative ratio was calculated using the above equation: [formula]

The test system of the next data set is reserpine-induced ulcer. Briefly: Reserpine-induced ulcer (Preventive test). Type of data set: in vivo, rat (male SD rats). As to conditions: Table 1; rat, 100 mg/kg oral, 30 min before reserpine 15 mg/kg i.p.; evaluated at 18 h; read-out: Preventive effect (preventive ratio). As for the experimental part:
as §1
Groups of rats, each consisting of 6 male SD rats weighing 150-200 g were used. After 24 hours' fasting, a sample compound was orally administered to the rat at the dose of 100 mg/kg body weight, and 30 minutes after the administration, reserpine was intraperitoneally injected at the dose of 15 mg/kg body weight. Eighteen hours after the administration, the rats were killed with chloroform. The stomach was taken out, and severity of the hemorrhaging lesion was evaluated according to the method as above ("Arch. Int. Pharmacodym. Ther. 147,113 (1964)).
The preventive ratio was calculated using the following equation, [formula] wherein the control animals were intraperitoneally given reserpine only, at the dose of 15 mg/kg body weight.

Data set [2] is described as follows: acute toxicity (LD50), intraperitoneal route in mice. The conditions noted are these: mouse, in vivo, ip. The data set is classed as in vivo.
Another data set concerns mice. The description is as above. The data set is classed as in vivo.

As a reminder, the LD50 is the dose at which mortality reaches 50%. High values mean a less toxic substance, low ones a more toxic substance. For the molecule `CC(C)=CCCC(C)=CCCC(C)=CCCC(C)=CCCC(C)=CCCC(C)=CCCC(C)=CCCC(C)=CCCC(C)=CCCC(C)=CCCC(=O)O` [Decaprenylacetic acid], the “Curative effect (curative ratio)” value in data set [1] was “+++ (40%-)”. In the data set on reserpine-induced ulcer, the inhibition in vivo at 100 mg/kg fell in the range of 40 to 60%. For the same molecule, the LD50 is above 4000 mg/kg in data set [2] (Table 2) and above 4 g/kg in the data set on mice (Table 1).

As to `CC(C)CCCC(C)CCCC(C)CCCC(C)CCCC(C)CCCC(C)CCCC(C)CCCC(C)CCCC(C)CCCC(C)CCO` (stereo not drawn) [Saturated decaprenol], the “Curative effect (curative ratio)” value in data set [1] is “++ (25%-40%)”. Further, the inhibition in vivo at 100 mg/kg with reserpine-induced ulcer was 10 to 40%. Further, the LD50 in data set [2] (Table 1) was above 5000 mg/kg; in the data set on mice (Table 2) it was above 5 g/kg.

Take `C=CC(C)(CCCC(C)CCCC(C)CCCC(C)C)OC(=O)CCCCCCC/C=C\CCCCCCCC` (stereo not drawn) [Isophytyl oleate]: the “Curative effect (curative ratio)” value in data set [1] is reported as “+++ (40%-)”. Besides, the inhibition in vivo at 100 mg/kg with reserpine-induced ulcer is above 60%. Further, the results for the LD50 (in data set [2] (Table 2); with mice (Table 1)) were above 4000 mg/kg and above 4 g/kg, respectively.
